Like-named read-outs stand apart in the source and are kept apart here.
Columns and labels:
[1] = Theacrine-caffeine interaction study: single oral dose plasma pharmacokinetics (LC-MS/MS, noncompartmental); type: in vivo, human; details: for Vd/F: read-out: Vd/F; for MRT: read-out: MRT; for half-life: read-out: t1/2 (converted)
Excerpt: Theacrine pharmacokinetics in humans has not been systematically characterized. Therefore, one purpose of this study, among others, was to determine theacrine pharmacokinetics and dose-linearity following oral administration in humans.
Eight healthy nonsmokers, including 4 men and 4 women, were recruited for the experiment.
(§1) Study Design and Procedures. […] Theacrine, administered as iTeaCrine.®, was provided by Compound Solutions (Carlsbad, Calif). […] Treatment sequence was randomized using a 4×4 Latin square. There was an approximate 1-week washout period between treatments for all subjects.
(§2) Test Visit Procedures. […] A catheter was inserted into the forearm vein for blood sampling. Duplicate measurements of resting heart rate and blood pressure were taken pre-dose and prior to each timed blood sample. In addition, respiratory rate was counted in one minute and body temperature was measured using an ear scanning thermometer (dual readings taken at each time).
All subjects were instructed to consume their usual diet throughout the study period, with the exception of the actual days of testing. During the two days prior to each test day, subjects recorded all food and drink consumed and attempted to mimic this intake for the two-day period prior to subsequent visits. Diet records were analyzed using nutrient analysis software (Food Processor SQL, version 9.9; ESHA Research, Salem, Oreg.). For the actual test days, standardized meals (meal replacement food bars [Clif “Builder's 20 g Protein Bar”] and ready-to-drink shakes [Orgain Organic Nutrition™]) were provided to the subjects after sample collection at hour 2 and hour 6 (one shake and one-half bar at each time). Subjects were also provided with adequate meal replacement bars and shakes to consume following the 8 hour sample collection. (during their time outside the lab). Each bar contained 280 calories, 10 grams of fat, 29 grams of carbohydrate, and 20 grams of protein. Each shake contained 250 calories, 7 grams of fat, 32 grams of carbohydrate, and 16 grams of protein. No food other than what was provided to the subjects was allowed during each study day, including both time spent in the lab and outside the lab. […] The subjects returned the following morning for the 24 hour blood collection, again in a 10 hour fasted state. The same volume of meal replacement bars or shakes was consumed by each subject during each visit (both in lab and outside lab).
Pharmacokinetic Study. Plasma concentration-time data were evaluated using noncompartmental methods in Phoenix WinNonlin (version 7.0; Pharsight Corporation, Mountain View, Calif) with adjustment for lag time after oral administration. The maximum concentration (Cmax), lag time (talag), and time of maximum concentration (tmax) were determined from the plasma concentration versus time data. The area under the plasma concentration-time curve from time 0 to infinity (was calculated using the trapezoidal rule extrapolated to time infinity). […] The oral clearance (CL/F) was calculated by dividing the oral dose by AUC0-∞. The apparent volume of distribution during the terminal elimination phase (Vz/F) was calculated by dividing CL/F by k. […]

[2] = Acute TeaCrine crossover trial: hemodynamics and side effect profiles; type: in vivo, human
Description: Anchored VAS questionnaires were used to detect changes in various aspects of physical and mental energy and performance; side effect profiles, hemodynamics and biochemical markers of safety were also collected over a 3-hr post-dosing period. A subset of 6 subjects underwent a separate 7-day, open-label, repeated dose study comparing 100 mg, 200 mg and 400 mg of TC.
Physical activity levels and health history were determined using standardized questionnaires. Heart rate and blood pressure were measured using an Omron HEM-780. Standing height was determined using a wall-mounted stadiometer. […] Medical Scale. A 100 mm anchored VAS questionnaire for energy, fatigue, and concentration was distributed at each acute lab session; additional VAS questionnaires were distributed for the daily assessment over a 6-hour period during the 7-day subset study. Quest Diagnostics (Pittsburgh, Pa.) was utilized to transport and analyze all blood samples. For each laboratory session, subjects reported to the lab well hydrated, 10-12 hours postprandial, and at least 24-hours after their last exercise session.
Statistical Analyses for Example 1. Descriptive statistics (mean, median, SD, 95% CIs) were used to quantify subjects physical characteristics. […] Effect sizes were also calculated. […]

[3] = test system: biomarkers of inflammation; test: Biomarkers of inflammation in humans; type: in vivo, human; details: acute inflammatory stressors or chronic consumption
Excerpt: Theacrine itself can reduce biomarkers of inflammation in humans in response to acute inflammatory stressors (e.g., intense exercise) or chronic consumption. Theacrine is shown to decrease C-reactive protein (CRP), Erythrocyte sedimentation rate (ESR), interleukin-6 (IL-6) and TNF-alpha.

[4] = Theacrine-caffeine interaction study: heart rate, blood pressure, rate pressure product, tolerability; details: at the doses tested, administered alone or in combination
Excerpt: as §1, §2
Differences between treatment group values were determined for systolic blood pressure (SBP), diastolic blood pressure (DBP), rate pressure product, and heart rate. Parametric data were analyzed by paired Student's t tests of mean differences in values between treatment groups. Statistical significance was defined a priori as a 2-sided or <0.05.

[5] = both sexes, human, plasma, po, 125 mg
[6] = theacrine 125 mg + caffeine 150 mg versus theacrine 125 mg
[7] = theacrine with caffeine co-administration versus theacrine alone

For `Cn1c(=O)c2c(n(C)c1=O)n(C)c(=O)n2C` [Theacrine, 1,3,7,9-tetramethylpurine-2,6,8-trione], the Vd/F ([1]; both sexes, human, plasma, oral, theacrine, Condition 4: Theacrine 125 mg + Caffeine 150 mg, mean ± SD) was 35.4 L, the dose-adjusted Cmax ([1]; both sexes, human, plasma, po, 25 mg, Cmax, theacrine in plasma, Condition 1: Theacrine 25 mg single oral dose, dose-adjusted, mean ± SD) was 34.1 ± 38.9 ng/mL/mg and the Vd/F ([1]; both sexes, human, plasma, po, 25 mg, theacrine, Condition 1: Theacrine 25 mg single oral dose, mean ± SD) was 48.1 ± 23.4 L. For the same molecule, the Tmax [1, 5] was 1.8 h, the dose-adjusted Cmax ([1]; both sexes, human, plasma, po, 125 mg, Cmax, theacrine in plasma, Condition 2: Theacrine 125 mg single oral dose, dose-adjusted, mean ± SD) was 25.6 ± 5.5 ng/mL/mg and the Vd/F ([1]; both sexes, human, plasma, po, 125 mg, theacrine, Condition 2: Theacrine 125 mg single oral dose, mean ± SD) was 50.5 ± 0.49 L. For the same molecule, the MRT [1, 5] was 36.8 ± 18.9 h, the half-life [1, 5] was 26.1 ± 13.7 h and the dose-adjusted Cmax ([1]; both sexes, human, plasma, po, Cmax, theacrine in plasma, Condition 4: Theacrine 125 mg + Caffeine 150 mg single oral dose, dose-adjusted, mean ± SD) was 38.6 ± 16.6 ng/mL/mg. The MRT ([1]; both sexes, human, plasma, theacrine, Condition 1: Theacrine 25 mg single oral dose, mean ± SD) was 24.9 ± 3.5 h, the half-life ([1]; both sexes, human, theacrine in plasma, Condition 1: Theacrine 25 mg single oral dose, mean ± SD) was 16.5 ± 2.4 h and the Tmax ([1]; both sexes, human, theacrine in plasma, Condition 1: Theacrine 25 mg single oral dose, median (range)) was 1.8 h. The “time to reach maximal concentration” value ([1]; oral administration of theacrine alone) was no more than 2 h, the “decrease of theacrine oral clearance (CL/F) by caffeine” value [1, 6] was “approximately 30%” and the “decrease of theacrine oral volume of distribution (Vd/F) by caffeine” value [1, 6] was “approximately 30%”. The “theacrine absorption rate (Tmax) and half-life (t1/2) under caffeine co-administration” value ([1]; theacrine 125 mg + caffeine 150 mg versus theacrine alone) was “unaffected”, the “absorption following oral administration” value ([1]; theacrine alone) was “well absorbed” and the “dose-adjusted theacrine pharmacokinetic parameters, 25 mg versus 125 mg” value ([1]; theacrine alone) was “not significantly different”. The AUC ([1]; theacrine in plasma, Condition 1: Theacrine 25 mg single oral dose, dose-adjusted, mean ± SD) was 809 ± 923 ng·h/mL/mg, the AUC ([1]; theacrine in plasma, Condition 2: Theacrine 125 mg single oral dose, dose-adjusted, mean ± SD) was 736 ± 312 ng·h/mL/mg and the dose-adjusted Cmax ([1]; theacrine in plasma, Condition 4: Theacrine 125 mg + Caffeine 150 mg single oral dose, dose-adjusted, mean ± SD) was 37.7 ± 16.5 ng/mL/mg. The AUC ([1]; theacrine in plasma, Condition 4: Theacrine 125 mg + Caffeine 150 mg, dose-adjusted, mean ± SD) was 1,242 ± 1,129 hr * ng/mL/mg, the “geometric mean ratio of AUC” value [1, 7] was 1.1 ±0.03 and the “geometric mean ratio of Cmax” value [1, 7] was 1.1 ±0.06. For the same molecule, the CL/F ([1]; theacrine, Condition 1: Theacrine 25 mg single oral dose, mean ± SD) was 2.0 ± 0.9 L/h, the CL/F ([1]; theacrine, Condition 2: Theacrine 125 mg single oral dose, mean ± SD) was 1.6 ± 0.5 L/h and the CL/F ([1]; theacrine, Condition 2: Theacrine 125 mg single oral dose, mean ± SD, listed as theacrine) was 1.6 ± 0.49 L/h. For the same molecule, the CL/F ([1]; theacrine, Condition 4: Theacrine 125 mg + Caffeine 150 mg, mean ± SD) was 1.2 ± 0.6 L/h, the CL/F ([1]; theacrine, Condition 4: Theacrine 125 mg + Caffeine 150 mg, mean ± SD, listed as theacrine) was 1.2 L/h and the AUC ([1]; theacrine, theacrine 125 mg alone) was 740 ± 310 ng·h/mL/mg. For the same molecule, the AUC ([1]; theacrine, with caffeine co-administration (theacrine 125 mg + caffeine 150 mg)) was 1200 ± 1100 ng·h/mL/mg, the “changes in systemic hemodynamics or side effect profiles” value ([2]; 200 mg dose of TC, 3-hr post-dosing period) was “No changes” and the “systemic hemodynamics: systolic and diastolic blood pressure (FIGS. 4 and 5)” value ([2]; various time intervals after administration) was “no substantial change”. The “C-reactive protein (CRP)” value [3] was “decrease”, the “Erythrocyte sedimentation rate (ESR)” value [3] was “decrease” and the TNF-alpha [3] was “decrease”. For the same molecule, the “interleukin-6 (IL-6)” value [3] was “decrease” and the “effect on baseline hemodynamic parameters, e.g. heart rate and blood pressure” value [4] was “no effect”.

Source: US11925645B2, “Enhanced caffeinated beverage composition” (Ortho-Nutra, LLC, priority 2013, dated 2024)
